We go through 47 compounds from ChEMBL document CHEMBL1156216, “Amide-based inhibitors of p38alpha MAP kinase. Part 2: design, synthesis and SAR of potent N-pyrimidyl amides” (Bioorg Med Chem Lett, 2010).

A value given as a limit tells only on which side of the number the result lay.

For one assay, the system named is Blood. In words: Antiinflammatory activity against LPS-induced TNFalpha production in human diluted whole blood administered 15 mins before LPS treatment after 2 hrs by ELISA. It counts as functional, tissue-based. For orientation: ELISA stands for enzyme-linked immunosorbent assay.
The next assay concerns the target Cytochrome P450 3A4 (Homo sapiens, UniProt P08684). In words: Inhibition of CYP3A4 after 30 mins by fluorescence assay. It counts as ADME. To be noted: read-out: INH.
Assay [1] deals with Mitogen-activated protein kinase 14 (Homo sapiens, UniProt Q16539). In words: Inhibition of human p38alpha assessed as gamma-[32P]ATP incorporation after 60 mins by scintillation counting.
Chain of Mitogen-activated protein kinase 14 (Q16539 whole entry): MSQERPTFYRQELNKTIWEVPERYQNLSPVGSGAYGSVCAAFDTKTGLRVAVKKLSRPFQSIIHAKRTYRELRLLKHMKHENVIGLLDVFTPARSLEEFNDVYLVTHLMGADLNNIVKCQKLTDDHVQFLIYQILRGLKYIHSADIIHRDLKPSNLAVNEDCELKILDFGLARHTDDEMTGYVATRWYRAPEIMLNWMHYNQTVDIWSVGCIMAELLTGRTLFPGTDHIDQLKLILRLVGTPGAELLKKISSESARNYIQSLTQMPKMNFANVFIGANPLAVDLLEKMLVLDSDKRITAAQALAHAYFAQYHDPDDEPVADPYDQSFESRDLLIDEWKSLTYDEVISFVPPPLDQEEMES

Chain of Cytochrome P450 3A4 (P08684 whole entry): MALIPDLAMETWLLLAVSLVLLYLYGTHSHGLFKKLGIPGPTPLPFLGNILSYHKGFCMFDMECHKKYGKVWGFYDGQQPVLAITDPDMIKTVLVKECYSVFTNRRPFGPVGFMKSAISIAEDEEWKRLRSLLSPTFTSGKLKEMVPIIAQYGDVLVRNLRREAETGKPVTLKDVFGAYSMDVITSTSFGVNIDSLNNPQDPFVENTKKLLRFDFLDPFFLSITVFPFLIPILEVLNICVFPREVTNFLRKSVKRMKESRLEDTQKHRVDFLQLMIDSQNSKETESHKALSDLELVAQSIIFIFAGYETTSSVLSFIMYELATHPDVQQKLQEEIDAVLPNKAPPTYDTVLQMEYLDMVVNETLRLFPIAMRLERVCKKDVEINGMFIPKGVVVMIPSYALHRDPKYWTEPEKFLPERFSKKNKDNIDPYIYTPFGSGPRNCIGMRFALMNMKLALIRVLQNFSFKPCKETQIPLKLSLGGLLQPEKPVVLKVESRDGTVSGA

For the compound `CC(C)Nc1nccc(N(CCCCN)C(=O)c2ccc3c(c2)CCO3)n1`, the IC50 with Blood was determined as 90 nM; on Cytochrome P450 3A4 it was 3120 nM; in assay [1] it was 17 nM.
The matching figures for `C[C@H](Nc1nccc(N(CC2CCNCC2)C(=O)c2ccc3c(c2)CCO3)n1)c1ccccc1`: 15 nM, 94 nM and 54 nM.
For the compound `C[C@H](Nc1nccc(N(CC2CCCNC2)C(=O)c2ccc3c(c2)CCO3)n1)c1ccccc1` (stereo partly drawn), the IC50 in assay [1] is more than 10000 nM.
As to `C[C@H](Nc1nccc(N(CC2CCN(C(N)=O)CC2)C(=O)c2ccc3c(c2)CCO3)n1)c1ccccc1`, the IC50 in the assay on Blood amounted to 524 nM; in assay [1] it was 711 nM.
For the compound `CC(C)CN(C(=O)c1ccc2c(c1)CCO2)c1ccnc(N[C@@H](C)c2ccccc2)n1`, the values for the IC50 (in the assay on Blood; in assay [1]) were 2090 nM and 462 nM, respectively.
As for `C[C@H](Nc1nccc(N(CC2CC2)C(=O)c2ccc3c(c2)CCO3)n1)c1ccccc1`, the figures for the IC50 (in the assay with Blood; in assay [1]) were 704 nM and 165 nM, respectively.
On to `COCCN(C(=O)c1ccc2c(c1)CCO2)c1ccnc(N[C@@H](C)c2ccccc2)n1`, for which the figures for the IC50 (in the assay with Blood; in assay [1]) were more than 10000 nM and 345 nM, respectively.
Taken in the same sequence, the figures for `C[C@H](Nc1nccc(N(CC2CCOCC2)C(=O)c2ccc3c(c2)CCO3)n1)c1ccccc1` were more than 10000 nM and 158 nM.
Turning to `CCN(C(=O)c1ccc(F)c(C)c1)c1ccnc(N[C@@H](C)c2ccccc2)n1`, the figures for the IC50 (with Blood; in assay [1]) were 178 nM and 39 nM, respectively.
The matching figures for `CCN(C(=O)c1cc(C)ccc1F)c1ccnc(N[C@@H](C)c2ccccc2)n1`: 58 nM and 26 nM.
Take `O=C(c1ccc2c(c1)CCO2)N(CC1CCNCC1)c1ccnc(NC2CCC(O)CC2)n1` (stereo not drawn): the IC50 in the assay with Blood was 3290 nM; at Cytochrome P450 3A4, more than 20000 nM; in assay [1] it was 360 nM.
For the compound `NC1CCC(Nc2nccc(N(CC3CCNCC3)C(=O)c3ccc4c(c3)CCO4)n2)CC1` (stereo not drawn), the IC50 with Blood was more than 10000 nM; on Cytochrome P450 3A4, more than 20000 nM; in assay [1], 400 nM.
In the case of `CCN(C(=O)c1cn(C)c2ccccc12)c1ccnc(N[C@@H](C)c2ccccc2)n1`, the IC50 with Blood is more than 10000 nM; in assay [1] it was 154 nM.
In the case of `CCN(C(=O)c1cc2ccccc2o1)c1ccnc(N[C@@H](C)c2ccccc2)n1`, the IC50 in the assay on Blood was more than 10000 nM; in assay [1], 179 nM.
In turn, `CCN(C(=O)c1ccc2ccccc2c1)c1ccnc(N[C@@H](C)c2ccccc2)c1` had an IC50 with Blood of more than 1000 nM.
For `CCN(C(=O)c1cccc2c1OCC2)c1ccnc(N[C@@H](C)c2ccccc2)n1`, the IC50 in the assay with Blood came to 829 nM; in assay [1], 90 nM.
Consider `CCN(C(=O)c1ccc2c(c1)CCC2)c1ccnc(N[C@@H](C)c2ccccc2)n1`, for which the IC50 in the assay with Blood was 300 nM; in assay [1] it was 45 nM.
For the compound `COC[C@H](C)Nc1nccc(N(CC2CCNCC2)C(=O)c2ccc3c(c2)CCO3)n1`, the IC50 was determined as 460 nM with Blood, 2020 nM at Cytochrome P450 3A4 and 316 nM in assay [1].
The matching figures for `C[C@@H](CO)Nc1nccc(N(CCCCN)C(=O)c2ccc3c(c2)CCO3)n1`: 2940 nM, 11700 nM and 310 nM.
For the compound `NCCCCN(C(=O)c1ccc2c(c1)CCO2)c1ccnc(NC2CCC(O)CC2)n1` (stereo not drawn), the IC50 in the assay on Blood was 865 nM; on Cytochrome P450 3A4 it was more than 20000 nM; in assay [1], 11 nM.
On to `COC[C@H](C)Nc1nccc(N(CCCCN)C(=O)c2ccc3c(c2)CCO3)n1`, for which the IC50 in the assay with Blood was 48 nM; on Cytochrome P450 3A4, 2650 nM; in assay [1], 25 nM.
On to `CC(C)(CO)Nc1nccc(N(CC2CCNCC2)C(=O)c2ccc3c(c2)CCO3)n1`, for which the IC50 in the assay with Blood was more than 10000 nM; at Cytochrome P450 3A4, 1540 nM; in assay [1] it was 3040 nM.
Turning to `CCC(COC)Nc1nccc(N(CC2CCNCC2)C(=O)c2ccc3c(c2)CCO3)n1` (stereo not drawn), the values for the IC50 (in the assay with Blood; on Cytochrome P450 3A4; in assay [1]) were 112 nM, 367 nM and 530 nM, respectively.
In the case of `O=C(c1ccc2c(c1)CCO2)N(CC1CCNCC1)c1ccnc(NC2CC2)n1`, the IC50 in the assay with Blood is 50 nM; on Cytochrome P450 3A4 it was 340 nM; in assay [1], 600 nM.
In the case of `CCN(C(=O)c1ccc2c(c1)CCCC2)c1ccnc(N[C@@H](C)c2ccccc2)n1`, the IC50 with Blood is more than 1000 nM; in assay [1], 180 nM.
Take `CCN(C(=O)c1cccc(Cl)c1)c1ccnc(N[C@@H](C)c2ccccc2)n1`: the results for the IC50 (with Blood; in assay [1]) were 533 nM and 81 nM, respectively.
The matching figures for `CCN(C(=O)c1ccc(Cl)cc1)c1ccnc(N[C@@H](C)c2ccccc2)n1`: more than 10000 nM and 313 nM.
On to `CCN(C(=O)c1cccc(C)c1)c1ccnc(N[C@@H](C)c2ccccc2)n1`, for which the IC50 worked out at 140 nM in the assay with Blood and 13 nM in assay [1].
As to `CCN(C(=O)c1ccc(C)c(C)c1)c1ccnc(N[C@@H](C)c2ccccc2)n1`, the IC50 is 143 nM in the assay on Blood and 91 nM in assay [1].
Turning to `CCN(C(=O)c1cccc(C)c1C)c1ccnc(N[C@@H](C)c2ccccc2)n1`, the figures for the IC50 (with Blood; in assay [1]) were 400 nM and 81 nM, respectively.
As for `CCc1cccc(C(=O)N(CC)c2ccnc(N[C@@H](C)c3ccccc3)n2)c1`, the IC50 is 152 nM with Blood and 65 nM in assay [1].
Turning to `CCN(C(=O)c1cccc(C2CC2)c1)c1ccnc(N[C@@H](C)c2ccccc2)n1`, the IC50 worked out at 349 nM in the assay on Blood and 104 nM in assay [1].
Turning to `CCN(C(=O)c1ccc2c(c1)OCO2)c1ccnc(N[C@@H](C)c2ccccc2)n1`, the IC50 with Blood is more than 1000 nM; in assay [1] it was 164 nM.
Regarding `CCN(C(=O)c1ccccc1)c1ccnc(N[C@@H](C)c2ccccc2)n1`, the IC50 in the assay on Blood is more than 10000 nM; in assay [1] it was 193 nM.
`CCN(C(=O)c1ccccc1Cl)c1ccnc(N[C@@H](C)c2ccccc2)n1`: the IC50 in the assay with Blood was more than 1000 nM; in assay [1] it was 267 nM.
For the compound `CCN(C(=O)c1ccc2ccccc2c1)c1ccnc(N[C@@H](C)c2ccccc2)n1`, the IC50 in the assay on Blood came to 187 nM; in assay [1], 64 nM.
With `CCN(C(=O)c1ccc2c(c1)CCO2)c1ccnc(N[C@@H](C)c2ccccc2)n1`, the IC50 in the assay on Blood was 387 nM; in assay [1] it was 17 nM.
For `CCN(C(=O)c1csc2ccccc12)c1ccnc(N[C@@H](C)c2ccccc2)n1`, the IC50 in the assay on Blood is more than 1000 nM; in assay [1], 188 nM.
Taken in the same sequence, the figures for `CCN(C(=O)c1ccc2occc2c1)c1ccnc(N[C@@H](C)c2ccccc2)n1` were 313 nM and 71 nM.
Regarding `CCN(C(=O)c1cccc(C(F)(F)F)c1)c1ccnc(N[C@@H](C)c2ccccc2)n1`, the IC50 with Blood is more than 1000 nM; in assay [1], 64 nM.
Turning to `C[C@H](Nc1nccc(N(CC2CCN(S(N)(=O)=O)CC2)C(=O)c2ccc3c(c2)CCO3)n1)c1ccccc1`, the IC50 in the assay on Blood was more than 10000 nM; in assay [1], 673 nM.
For the compound `C[C@H](Nc1nccc(N(CCCN)C(=O)c2ccc3c(c2)CCO3)n1)c1ccccc1`, in assay [1], the IC50 was more than 10000 nM.
`C[C@H](Nc1nccc(N(CCCCN)C(=O)c2ccc3c(c2)CCO3)n1)c1ccccc1`: the IC50 stood at 9 nM in the assay on Blood, 180 nM on Cytochrome P450 3A4 and 4 nM in assay [1].
Turning to `C[C@H](Nc1nccc(N(CCCCO)C(=O)c2ccc3c(c2)CCO3)n1)c1ccccc1`, the IC50 with Blood worked out at 130 nM; in assay [1] it was 96 nM.
`C[C@H](Nc1nccc(N(CC2CCCCN2)C(=O)c2ccc3c(c2)CCO3)n1)c1ccccc1` (stereo partly drawn): in assay [1], the IC50 is more than 10000 nM.
As to `C[C@H](Nc1nccc(N(CCCS(C)(=O)=O)C(=O)c2ccc3c(c2)CCO3)n1)c1ccccc1`, the IC50 was 564 nM with Blood and 72 nM in assay [1].
For the compound `CC(C)Nc1nccc(N(CC2CCNCC2)C(=O)c2ccc3c(c2)CCO3)n1`, the IC50 with Blood worked out at 88 nM; on Cytochrome P450 3A4, 2900 nM; in assay [1] it was 24 nM.
